{"source": "paper PMC7501296", "about": "“Rapid and direct control of target protein levels with VHL-recruiting dTAG molecules” (Nature Communications, 2020)", "key": {"FKBP12^WT-Nluc": {"target": "T1, FKBP12^WT-Nluc (Homo sapiens, UniProt P62942)", "T1 construct": "expressed in transfected cells; host or cells: 293FT", "T1 sequence (P62942 2-108 limits assumed)": "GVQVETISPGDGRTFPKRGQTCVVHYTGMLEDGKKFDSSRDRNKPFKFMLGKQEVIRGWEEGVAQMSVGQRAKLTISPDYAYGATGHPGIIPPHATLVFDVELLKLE", "assay": "FKBP12WT-Nluc dual luciferase assay (293FT)", "assay_type": "cell-based", "conditions": "293FT, 24 h", "method_in_brief": "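293FT cells expressing FKBP12^WT-Nluc or FKBP12^F36V-Nluc with Fluc were treated with compound for 24 h at 37 °C. Fluc, then Nluc, luminescence was read with Dual-Glo reagents. Values are DMSO-normalised Nluc/Fluc ratios.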"}, "[1]": {"test_system": "PATU-8902 LACZ-FKBP12^F36V clone", "assay": "Quantitative MS proteomics, PATU-8902 LACZ-FKBP12F36V clone", "assay_type": "cell-based, Homo sapiens", "conditions": "for TMT intensity per TMT channel: PATU-8902 LACZ-FKBP12F36V samples, biological replicates; for log2 (Fold change) compared to DMSO: 500 nM, 4 h", "protocol": "Cell pellets from PATU-8902 and EWS502 cells were lysed using 8 M urea, 200 mM 4-(2-hydroxyethyl)-1-piperazinepropanesulfonic acid (EPPS) at pH 8.5 with protease inhibitors. Samples were further homogenized and DNA was sheered via sonication using a probe sonicator (20 × 0.5 s pulses; level 3). Total protein was determined using a BCA assay and stored at −80 °C until future use. A total of 100 µg of protein was aliquoted for each condition and TMT channel for further downstream processing. Protein extracts were reduced using 10 mM dithiothreitol (DTT) for 30 min at room temperature. Next, samples were alkylated with 20 mM iodoacetamide for 45 min in the dark at room temperature. To facilitate the removal of incompatible reagents, proteins were precipitated using chloroform methanol. Briefly, to 100 µL of each sample, 400 µL of methanol was added, followed by 100 µL of chloroform with thorough vortexing. Next, 300 µL of HPLC grade water was added and samples were vortexed thoroughly. Each sample was centrifuged at 14,000 × g for 5 min at room temperature. The upper aqueous layer was removed and the protein pellet was washed twice with methanol and centrifuged at 14,000 × g for 5 min at room temperature. Protein pellets were resolubilized in 200 mM EPPS buffer and digested overnight with Lys-C (1:100, enzyme:protein ratio) at room temperature. The next day, trypsin (1:100 ratio) was added and incubated at 37 °C for an additional 6 h in a ThermoMixer set to 1000 RPM.\nTo each digested sample, 30% anhydrous acetonitrile was added and 100 µg of peptides were labeled using 200 µg of TMT reagent (TMT1-TMT11). Following labeling, a 5% hydroxylamine solution was used to quench excess TMT reagent. To equalize protein loading, a ratio check was performed by pooling 2 µg of each TMT-labeled sample. Samples were pooled and desalted using in-house packed C18 StageTips and analyzed by LC-MS/MS. Normalization factors were calculated from this label check, samples were mixed 1:1 across all TMT channels and desalted using a 100 mg Sep-Pak solid phase extraction cartridge. Eluted pooled peptides were further fractionated with basic-pH reverse-phase (bRP) HPLC using an Agilent 300 extend C18 column and collected into a 96 deep-well plate. Samples were consolidated into 24 fractions, and 12 nonadjacent fraction were desalted using StageTips prior to analyses using LC-MS/MS[35]–[37].\nAll mass spectrometry data was acquired using an Orbitrap Fusion mass spectrometer in-line with a Proxeon NanoLC-1000 UHPLC system. Peptides were separated using an in-house 100 µm capillary column packed with 40 cm of Accucore 150 resin (2.6 µm, 150 Å) (Thermo Fisher Scientific) using a 180 min LC gradient per fraction. Eluted peptides were acquired using synchronous precursor selection (SPS-MS3) method for TMT quantification. Briefly, MS1 spectra were acquired at 120 K resolving power with a maximum of 50 ms in the Orbitrap. MS2 spectra were acquired by selecting the top ten most abundant features via collisional induced dissociation (CID) in the ion trap using an automatic gain control (AGC) of 15 K, quadrupole isolation width of 0.7 m/z and a maximum ion time of 100 ms. For MS3 acquisition, a synchronous precursor selection of ten fragment ions was acquired with an AGC of 150 K for 150 ms and a normalized collision energy of 55.\nAll acquired raw data were converted to mzXML using Raw File Reader (v3.0.77). Spectra were processed using Comet (2019.01.5)[39]–[41], search results were filtered using the LDA function MASS Package in R, and data were processed using an in-house informatics pipeline[42]–[44]. Custom code was not developed in this study. Briefly, peptide spectral libraries were first filtered to a peptide false discovery rate (FDR) of less than 1% using linear discriminant analysis employing a target decoy strategy. […]"}, "[2]": {"test_system": "PATU-8902 FKBP12^F36V-KRAS^G12V; KRAS^-/- clone", "assay": "Antiproliferation, PATU-8902 FKBP12F36V-KRASG12V; KRAS-/- clone, 3D-spheroid (CellTiter-Glo)", "assay_type": "cell-based", "conditions": "FKBP12F36V-KRASG12V, KRAS-/-, 3D-spheroid, 120 h", "method_in_brief": "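Viability of cells grown as ultra-low adherent 3D-spheroids was determined with CellTiter-Glo (Promega). Luminescence readings were taken on an Envision 2104 plate reader (PerkinElmer) and a Fluostar Omega Reader (BMG Labtech), and the resulting data were processed in GraphPad PRISM v8 to assess effects on cell proliferation.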"}}, "note": "Values joined by “and” are separate entries in the source; they are usually repeats but may differ in a detail not shown here. Equal values may be shown once."}
{"smiles": "CCC(C(=O)N1CCCCC1C(=O)OC(CCc1ccc(OC)c(OC)c1)c1ccccc1OCC(=O)NCCCCCCC(=O)NC(C(=O)N1CC(O)CC1C(=O)NC(C)c1ccc(-c2scnc2C)cc1)C(C)(C)C)c1cc(OC)c(OC)c(OC)c1", "note": "(stereo not drawn) [dTAG^V-1-NEG]", "values": [{"measurement": "Effect on FKBP12WT-Nluc (in words)", "setting": "FKBP12^WT-Nluc", "value": "no activity"}, {"measurement": "TMT intensity per TMT channel", "setting": "[1]; protein CDK12", "value": "2630.52 and 3108.44 and 2718.26"}, {"measurement": "log2 (Fold change) compared to DMSO", "setting": "[1]; protein CRY1", "value": -0.9118}, {"measurement": "TMT intensity per TMT channel", "setting": "[1]; protein INCENP", "value": "2713.73 and 2977.66 and 2766.34"}, {"measurement": "TMT intensity per TMT channel", "setting": "[1]; protein IRS2", "value": "358.215 and 458.696 and 391.289"}, {"measurement": "log2 (Fold change) compared to DMSO", "setting": "[1]; protein LITAF", "value": -0.2196}, {"measurement": "log2 (Fold change) compared to DMSO", "setting": "[1]; protein MPRIP", "value": -0.5841}, {"measurement": "log2 (Fold change) compared to DMSO", "setting": "[1]; protein RIOX1", "value": 0.1069}, {"measurement": "log2 (Fold change) compared to DMSO", "setting": "[1]; protein SGTA", "value": 0.1473}, {"measurement": "TMT intensity per TMT channel", "setting": "[1]; protein SLC12A2", "value": "1702.64 and 1563.99 and 1824.49"}, {"measurement": "TMT intensity per TMT channel", "setting": "[1]; protein SLC15A4", "value": "247.423 and 199.538 and 213.085"}, {"measurement": "DMSO-normalized antiproliferation", "setting": "[2]; log10[compound] (M) -5.69897, single replicates", "value": "37.3931 and 26.551 and 27.3028 and 28.0546"}, {"measurement": "DMSO-normalized antiproliferation", "setting": "[2]; log10[compound] (M) -6.19897, single replicates", "value": "78.1886 and 92.1435 and 64.5511 and 70.1475"}, {"measurement": "DMSO-normalized antiproliferation", "setting": "[2]; log10[compound] (M) -6.69897, single replicates", "value": "103.503 and 85.567 and 103.938 and 98.1965"}, {"measurement": "DMSO-normalized antiproliferation", "setting": "[2]; log10[compound] (M) -7.19897, single replicates", "value": "124.063 and 123.712 and 110.481 and 131.998"}, {"measurement": "DMSO-normalized antiproliferation", "setting": "[2]; log10[compound] (M) -7.69897, single replicates", "value": "94.7496 and 116.061 and 121.718 and 128.178"}, {"measurement": "DMSO-normalized antiproliferation", "setting": "[2]; log10[compound] (M) -8.19897, single replicates", "value": "119.268 and 103.119 and 108.576 and 125.767"}, {"measurement": "DMSO-normalized antiproliferation", "setting": "[2]; log10[compound] (M) -8.69897, single replicates", "value": "120.883 and 119.814 and 120.521 and 105.703"}, {"measurement": "DMSO-normalized antiproliferation", "setting": "[2]; log10[compound] (M) -9.19897, single replicates", "value": "102.117 and 92.5221 and 111.366 and 98.8369"}, {"measurement": "DMSO-normalized antiproliferation", "setting": "[2]; log10[compound] (M) -9.69897, single replicates", "value": "88.1174 and 98.3023 and 99.984 and 124.954"}, {"measurement": "DMSO-normalized antiproliferation", "setting": "[2]; log10[compound] (M) -10.199, single replicates", "value": "99.0429 and 90.8682 and 97.0717 and 101.855"}]}
